{"source": "patent US4362743A", "about": "“Antibacterial monic acid esters” (Beecham Group Limited, priority 1980, dated 1982)", "format_in_all_cases": "cell-based", "key": {"[1]": {"test_system": "M. suipneumoniae NB12", "experiment": "Anti-mycoplasmal activity in vitro MIC", "conditions": "Mesomycoplasma hyopneumoniae, NB12, 144 h"}, "[2]": {"test_system": "M. suipneumoniae JF 435", "experiment": "Anti-mycoplasmal activity in vitro MIC", "conditions": "Mesomycoplasma hyopneumoniae, JF435, 144 h; M. suipneumoniae JF 435; Friis broth, 0.9% agarose, 6 days 37° C.; read-out: M.I.C."}, "[3]": {"test_system": "M. suipneumoniae HK (2)", "experiment": "Anti-mycoplasmal activity in vitro MIC", "conditions": "Mesomycoplasma hyopneumoniae, 144 h; M. suipneumoniae HK (2); Friis broth, 0.9% agarose, 6 days 37° C.; read-out: M.I.C."}, "[4]": {"test_system": "M. suipneumoniae Str. 11", "experiment": "Anti-mycoplasmal activity in vitro MIC", "conditions": "Mesomycoplasma hyopneumoniae, STR.11, 144 h"}, "[5]": {"test_system": "M. suipneumoniae J2206/183b", "experiment": "Anti-mycoplasmal activity in vitro MIC", "conditions": "Mesomycoplasma hyopneumoniae, 144 h; M. suipneumoniae J2206/183b; Friis broth, 0.9% agarose, 6 days 37° C.; read-out: M.I.C."}, "[6]": {"test_system": "M. suipneumoniae MS16", "experiment": "Anti-mycoplasmal activity in vitro MIC", "conditions": "Mesomycoplasma hyopneumoniae, MS16, 144 h"}, "[7]": {"test_system": "M. suipneumoniae PW/C/210", "experiment": "Anti-mycoplasmal activity in vitro MIC", "conditions": "Mesomycoplasma hyopneumoniae, 144 h"}, "[8]": {"test_system": "M. suipneumoniae LABER", "experiment": "Anti-mycoplasmal activity in vitro MIC", "conditions": "Mesomycoplasma hyopneumoniae, 144 h"}, "[9]": {"test_system": "M. suipneumoniae UCD 1", "experiment": "Anti-mycoplasmal activity in vitro MIC", "conditions": "Mesomycoplasma hyopneumoniae, UCD1, 144 h; M. suipneumoniae UCD 1; Friis broth, 0.9% agarose, 6 days 37° C.; read-out: M.I.C."}, "[10]": {"test_system": "M. suipneumoniae TAM 6N", "experiment": "Anti-mycoplasmal activity in vitro MIC", "conditions": "Mesomycoplasma hyopneumoniae, TAM6N, 144 h; M. suipneumoniae TAM 6N; Friis broth, 0.9% agarose, 6 days 37° C.; read-out: M.I.C."}, "[11]": {"test_system": "M. suipneumoniae ATCC 25095", "experiment": "Anti-mycoplasmal activity in vitro MIC", "conditions": "Mesomycoplasma hyopneumoniae, ATCC25095, 144 h"}, "[12]": {"test_system": "M. suipneumoniae NCTC 10110", "experiment": "Anti-mycoplasmal activity in vitro MIC", "conditions": "Mesomycoplasma hyopneumoniae, NCTC10110, 144 h; M. suipneumoniae NCTC 10110; Friis broth, 0.9% agarose, 6 days 37° C.; read-out: M.I.C."}, "[13]": {"test_system": "M. hyorhinis ATCC 23234", "experiment": "Anti-mycoplasmal activity in vitro MIC", "conditions": "Mesomycoplasma hyorhinis, ATCC23234, 144 h"}, "[14]": {"test_system": "M. hyorhinis ATCC 25021", "experiment": "Anti-mycoplasmal activity in vitro MIC", "conditions": "Mesomycoplasma hyorhinis, ATCC25021, 144 h"}, "[15]": {"test_system": "M. hyosynoviae ATCC 25591", "experiment": "Anti-mycoplasmal activity in vitro MIC", "conditions": "144 h"}, "[16]": {"test_system": "M. bovis NCTC 10131", "experiment": "microbe, parasite or virus in culture", "conditions": "NCTC10131, 144 h"}, "[17]": {"test_system": "M. bovigenitalium ATCC 14173", "experiment": "Anti-mycoplasmal activity in vitro MIC", "conditions": "144 h; M. bovigenitalium ATCC 14173; Friis broth, 0.9% agarose, 6 days 37° C.; read-out: M.I.C."}, "[18]": {"test_system": "M. dispar NCTC 10125", "experiment": "Anti-mycoplasmal activity in vitro MIC", "conditions": "144 h"}, "[19]": {"test_system": "M. gallisepticum S6", "experiment": "Anti-mycoplasmal activity in vitro MIC", "conditions": "Mycoplasmoides gallisepticum, 144 h; M. gallisepticum S6; Friis broth, 0.9% agarose, 6 days 37° C.; read-out: M.I.C."}, "[20]": {"test_system": "M. pneumoniae ATCC 15492", "experiment": "Anti-mycoplasmal activity in vitro MIC", "conditions": "Mycoplasmoides pneumoniae, ATCC15492, 144 h"}}}
{"compound": "C/C(=C\\C(=O)OCc1cccc(C=NO)c1)C[C@@H]1OC[C@H](C[C@@H]2O[C@H]2[C@@H](C)[C@H](C)O)[C@@H](O)[C@H]1O", "note": "[Example 8, m-Hydroxyiminomethylbenzyl monate A]", "values": [{"measurement": "MIC", "setting": "[1]", "result": 0.25, "unit": "µg/mL"}, {"measurement": "MIC", "setting": "[2]", "result": 0.5, "unit": "µg/mL"}, {"measurement": "MIC", "setting": "[3]", "result": 0.5, "unit": "µg/mL"}, {"measurement": "MIC", "setting": "[4]", "result": 0.25, "unit": "µg/mL"}, {"measurement": "MIC", "setting": "[5]", "result": 0.5, "unit": "µg/mL"}, {"measurement": "MIC", "setting": "[6]", "result": 0.25, "unit": "µg/mL"}, {"measurement": "MIC", "setting": "[7]", "result": 0.25, "unit": "µg/mL"}, {"measurement": "MIC", "setting": "[8]", "result": 0.25, "unit": "µg/mL"}, {"measurement": "MIC", "setting": "[9]", "result": 0.5, "unit": "µg/mL"}, {"measurement": "MIC", "setting": "[10]", "result": 0.5, "unit": "µg/mL"}, {"measurement": "MIC", "setting": "[11]", "result": 0.25, "unit": "µg/mL"}, {"measurement": "MIC", "setting": "[12]", "result": 0.5, "unit": "µg/mL"}, {"measurement": "MIC", "setting": "[13]", "result": 0.25, "unit": "µg/mL"}, {"measurement": "MIC", "setting": "[14]", "result": 0.25, "unit": "µg/mL"}, {"measurement": "MIC", "setting": "[15]", "result": 0.25, "unit": "µg/mL"}, {"measurement": "MIC", "setting": "[16]", "result": "≤ 0.01", "unit": "µg/mL"}, {"measurement": "MIC", "setting": "[17]", "result": 0.025, "unit": "µg/mL"}, {"measurement": "MIC", "setting": "[18]", "result": 0.1, "unit": "µg/mL"}, {"measurement": "MIC", "setting": "[19]", "result": 5, "unit": "µg/mL"}, {"measurement": "MIC", "setting": "[20]", "result": 2.5, "unit": "µg/mL"}]}
